{"source": "patent US5066817A", "about": "“DC115A compounds produced by streptomyces sp” (Kyowa Hakko Kogyo Co., Ltd., priority 1989, dated 1991)", "key": {"[1]": {"tested_on": "Salmonella typhi ATCC 9992", "assay": "Antibacterial activity, agar dilution method (pH 7.0)", "type": "cell-based", "conditions": "Salmonella enterica, pH 7, read-out: Minimum Inhibitory Concentration", "experimental": "(§1) The minimum inhibitory concentration (MIC) against various bacteria was determined by the agar dilution method (pH 7.0)."}, "[2]": {"tested_on": "Klebsiella pneumoniae ATCC 10031", "assay": "Antibacterial activity, agar dilution method (pH 7.0)", "type": "cell-based", "conditions": "ATCC10031, read-out: Minimum Inhibitory Concentration", "experimental": "as §1"}, "[3]": {"tested_on": "Bacillus subtilis No. 10707", "assay": "Antibacterial activity, agar dilution method (pH 7.0)", "type": "cell-based", "conditions": "read-out: Minimum Inhibitory Concentration", "experimental": "as §1"}, "Escherichia coli ATCC 26": {"tested_on": "Escherichia coli ATCC 26", "assay": "Antibacterial activity, agar dilution method (pH 7.0)", "type": "cell-based", "conditions": "ATCC26, read-out: Minimum Inhibitory Concentration", "experimental": "as §1"}, "[4]": {"tested_on": "Staphylococcus aureus ATCC 6538P", "assay": "Antibacterial activity, agar dilution method (pH 7.0)", "type": "cell-based", "conditions": "ATCC6538P, read-out: Minimum Inhibitory Concentration", "experimental": "as §1"}, "HeLaS3 cells": {"tested_on": "HeLaS3 cells", "assay": "Growth inhibition against HeLaS3 cells", "type": "cell-based", "conditions": "Homo sapiens, HeLa S3, 72 hours", "experimental": "(§2) A T24 cell suspension ([…]) prepared by suspending T24 cells in a medium comprising F10 medium (GIBCO Co., Ltd.), […] fetal calf serum, 100 units/ml penicillin and 100 μg/ml streptomycin (hereinafter referred to as medium A) was put into wells of a 96-well microtiter plate in an amount of 0.1 ml per well. After incubation at 37° C. for 20 hours in a […], 0.05 ml of a sample appropriately diluted with medium A was added to each well. The cells were further cultured at 37° C. for 72 hours in the CO2 -incubator and the culture supernatant was removed. To the residue was added a medium comprising medium A and 0.02% Neutral Red in an amount of 0.1 ml per well, followed by culturing at 37° C. for one hour in the CO2 -incubator, whereby the cells were stained. After the culture supernatant was removed, the residue was washed once with physiological saline.\n(§3) Then, the pigment was extracted with 0.001N hydrochloric acid/30% ethanol and absorbance at 550 nm was measured with a microplate reader. By comparing the absorbance of intact cells with those of the cells treated with a test compound at known concentrations, the concentration of the test compound at which the growth of the cells is inhibited by 50% (IC50) was determined.\n(§4) IC50 was determined in the same manner as in the case of T24 cells except that a suspension of HeLaS3 cells (3×10^4 cells/ml) prepared by suspending HeLaS3 cell medium comprising MEM medium (Nissui Pharmaceutical Co., Ltd.) and 2 mM glutamine was used."}, "Solubility": {"assay": "Solubility", "type": "physicochemical"}, "tumor cells": {"tested_on": "tumor cells", "assay": "Growth inhibition of tumor cells, overall result of (B) and (C)", "type": "cell-based", "conditions": "from the results of (B) and (C)", "experimental": "as §2, §3, §4"}, "T24 cells": {"tested_on": "T24 cells", "assay": "Growth inhibition against T24 cells (Neutral Red staining)", "type": "cell-based", "conditions": "Homo sapiens, T-24, 72 hours", "experimental": "as §2, §3"}, "[5]": {"conditions": "chloroform, dimethylsulfoxide, methanol, ethyl acetate and acetone"}}, "data": [{"compound": "CCCC1OC1(C)c1cc(=O)c2c(CC(=O)O)cc3cc4c(c(O)c3c2o1)C(=O)CCC4OC(C)=O", "note": "(stereo not drawn) [DC115A1]", "values": [{"measurement": "MIC", "setting": "[1]", "value": "> 100", "unit": "µg/mL"}, {"measurement": "MIC", "setting": "[2]", "value": "> 100", "unit": "µg/mL"}, {"measurement": "MIC", "setting": "[3]", "value": 10, "unit": "µg/mL"}, {"measurement": "MIC", "setting": "Escherichia coli ATCC 26", "value": "> 100", "unit": "µg/mL"}, {"measurement": "MIC", "setting": "[4]", "value": 5.2, "unit": "µg/mL"}, {"measurement": "IC50", "setting": "HeLaS3 cells", "value": 0.22, "unit": "µg/mL"}, {"measurement": "Solubility", "setting": "Solubility; [5]", "value": "Soluble"}, {"measurement": "Solubility", "setting": "Solubility; water and n-hexane", "value": "sparingly soluble"}, {"measurement": "inhibition of growth of tumor cells", "setting": "tumor cells", "value": "inhibit the growth of tumor cells"}, {"measurement": "IC50", "setting": "T24 cells", "value": 0.17, "unit": "µg/mL"}]}, {"compound": "CCC1OC1(C)c1cc(=O)c2c(CC(=O)O)cc3cc4c(c(O)c3c2o1)C(=O)CCC4OC(C)=O", "note": "(stereo not drawn) [DC115A2]", "values": [{"measurement": "MIC", "setting": "[1]", "value": "> 100", "unit": "µg/mL"}, {"measurement": "MIC", "setting": "[2]", "value": 10, "unit": "µg/mL"}, {"measurement": "MIC", "setting": "[3]", "value": 10, "unit": "µg/mL"}, {"measurement": "MIC", "setting": "Escherichia coli ATCC 26", "value": 83, "unit": "µg/mL"}, {"measurement": "MIC", "setting": "[4]", "value": 2.6, "unit": "µg/mL"}, {"measurement": "IC50", "setting": "HeLaS3 cells", "value": 0.19, "unit": "µg/mL"}, {"measurement": "Solubility", "setting": "Solubility; [5]", "value": "Soluble"}, {"measurement": "Solubility", "setting": "Solubility; water and n-hexane", "value": "sparingly soluble"}, {"measurement": "inhibition of growth of tumor cells", "setting": "tumor cells", "value": "inhibit the growth of tumor cells"}, {"measurement": "IC50", "setting": "T24 cells", "value": 0.11, "unit": "µg/mL"}]}, {"compound": "CC=CC1OC1(C)c1cc(=O)c2c(CC(=O)O)cc3cc4c(c(O)c3c2o1)C(=O)CCC4OC(C)=O", "note": "(stereo not drawn) [DC115A3]", "values": [{"measurement": "MIC", "setting": "[1]", "value": 83, "unit": "µg/mL"}, {"measurement": "MIC", "setting": "[2]", "value": 5.2, "unit": "µg/mL"}, {"measurement": "MIC", "setting": "[3]", "value": 1.3, "unit": "µg/mL"}, {"measurement": "MIC", "setting": "Escherichia coli ATCC 26", "value": 21, "unit": "µg/mL"}, {"measurement": "MIC", "setting": "[4]", "value": 0.3, "unit": "µg/mL"}, {"measurement": "IC50", "setting": "HeLaS3 cells", "value": 0.42, "unit": "µg/mL"}, {"measurement": "Solubility", "setting": "Solubility; [5]", "value": "Soluble"}, {"measurement": "Solubility", "setting": "Solubility; water and n-hexane", "value": "sparingly soluble"}, {"measurement": "inhibition of growth of tumor cells", "setting": "tumor cells", "value": "inhibit the growth of tumor cells"}, {"measurement": "IC50", "setting": "T24 cells", "value": 0.14, "unit": "µg/mL"}]}]}
